Results from US11413280B2 (The Board of Trustees of the Leland Stanford Junior …, priority 2017, dated 2022).
Entries after “also recorded” stand apart in the source; their conditions may differ.

Assays:
[1] = system: SUGEN5416/Hypoxia/Normoxia rats; experiment: SUGEN5416/Hypoxia/Normoxia rat model of experimental PH; assay type: in vivo
Description: Experimental PAH was induced in male Sasco Sprague Dawley rats by subcutaneous injection of 20 mg/kg body weight SU5416. […] Echocardiography was performed to assess development of RV hypertrophy and Ejection Fraction. Right Ventricular (RV) Systolic Pressure was measured through right jugular vein catheterization and RV hypertrophy was assessed by the weight ratio of the RV to left ventricle+septum. Vessel loss and muscularization of lung vessels were visualized by MOVAT pentachrome stain. […] FIG. 4F, Representative MOVAT lung histology. Fhit homozygous (−/−) mice were obtained from Kay F. Huebner (Ohio State University). Bmpr2+/− mice were a gift from Marlene Rabinovitch (Stanford University). Adult wildtype C57BL/6 mice, Bmpr2+/− or Fhit−/− mice at 8-10 weeks of age were housed in chronic hypoxia (10% O2) for 3 weeks, followed by a recovery period of 4 weeks in normoxia (21% O2). […] Development of experimental PH was induced in adult Sprague Dawley rats (8 weeks old, 180-220 g) through a subcutaneous dose of the VEGFR-2 inhibitor SUGEN5416 (20 mg/kg body weight), followed by exposure to chronic hypoxia (10% O2) for 3 weeks and normoxia for 5 weeks (21% O2), as previously described(12). […] Right Ventricular (RV) Systolic Pressure was measured through right jugular vein catheterization, and RV hypertrophy (RVH) was assessed by the weight ratio of the RV to left ventricle and septum (LV+S). Murine and rat lung tissue was fixed in paraformaldehyde (PFA) for 48 hours and preserved in EtOH. Paraffin embedded lung slides were stained with a Movat pentachrome stain (Histo-Tec, Hayward, Calif.), where vessel loss and muscularization of pulmonary vessels was visualized by light microscopy. Fluorescent immunocytochemistry on lung sections was performed on deparaffinized (Histoclear II, National Diagnostics) tissue sections with primary antibodies for von-Willebrand factor (vWF) and alpha smooth muscle actin (αSMA) following antigen-retrieval. Human PAH lung tissue was stained for anti-BMPR2 (Ab130206, Abcam) and anti-FHIT (kind gift of Kay F. Huebner, Ohio State University). PFA-fixed paraffin-embedded heart tissue was stained with trichrome staining (Histo-Tec, Hayward, Calif.) to visualize fibrotic transformation. Sprague Dawley rats, were subcutaneously injected with 20 mg/kg SUGEN5416 once and housed in chronic hypoxia (10%, 3 weeks), followed by 5 weeks in normoxia as previously described(41). […] Hemodynamic assessment of the animals (echocardiography, right heart catheter) was performed before sacrifice and tissue collection. […] Experimental PH was induced in male Sprague Dawley rats by subcutaneous injection of 20 mg/kg body weight SU5416. […] FIG. 11F, Representative MOVAT lung histology, highlighting large pulmonary vessels.

[2] = system: PAEC; experiment: Trypan Blue viability assay and total cell counts; assay type: cell-based, human
[3] = 5 mg/kg daily oral gavage for 3 weeks, vs vehicle
[4] = 5 mg/kg/day oral gavage for 3 weeks, qPCR

SMILES: Cn1cc(C2=C(c3cn(C4CCN(Cc5ccccn5)CC4)c4ccccc34)C(=O)NC2=O)c2ccccc21 [Enzastaurin, 3-(1-methyl-1H-indol-3-yl)-4-[1-[1-(pyridin-2-ylmethyl)piperidin-4-yl]-1H-indol-3-yl]-1H-pyrrole-2,5-dione]
- Cardiac output ([1]; 5 mg/kg daily oral gavage): improves
- Cardiac / RV fibrosis [1, 3]: reverses; also recorded: potently reduced
- Full or partial remodeling / muscularization of small and large vessels [1, 3]: substantially and significantly reversed; also recorded: potently reduced
- Loss of alveolar wall (AW) and alveolar duct (AD) pulmonary vessels [1, 3]: substantially and significantly reversed
- Right ventricle hypertrophy (RVH) [1, 3]: lower; also recorded: potently reduced
- Vascular occlusion [1, 3]: reverses; also recorded: nearly entirely reversed; also recorded: significantly less evidence
- Right ventricle systolic pressure (RVSP) ([1]; 5 mg/kg daily oral gavage for 3 weeks, vs vehicle treated controls with experimental PAH): lower
- Emphysematous changes (linear intercept analysis of MOVAT lung histology) ([1]; 5 mg/kg daily oral gavage, vs untreated controls): significantly less evidence
- Reduction of RVSP ([1]; 5 mg/kg/day oral gavage for 3 weeks): over 30 mmHg
- BMPR2 expression in whole lung [1, 4]: increased
- FHIT expression in whole lung [1, 4]: increased
- LVEF (%) by Echocardiography ([1]; before and after 3 weeks of 5 mg/kg daily oral gavage): improvement
- SUGEN5416/Hypoxia/Normoxia-induced lung and RV damage ([1]; low-dose Enzastaurin (5 mg/kg/day)): potently reversed
- Total cell counts ([2]; Enzastaurin up to 50 μM): increased cell numbers
- Cell toxicity by Trypan Blue viability assay ([2]; varying concentrations of Enzastaurin): did not elicit cell toxicity
